Where two headings read alike, the source gives them in different places.
Experiment: Solubility of Formula (I) in simulated gastric and fasted simulated intestinal fluid
Format: physicochemical
Description: Furthermore, we have observed that the compound of Formula (I) may form a viscous material at low pH, which has the effect of reducing the rate at which the drag dissolves. In order to achieve an acceptable rate and extent of dissolution across the physiological pH range, the earlier clinical formulation was manufactured using conditions designed to give a fine granule which, when compressed into tablet form would disperse rapidly upon administration. While this approach did result in an improvement in dissolution performance, ‘filming’ problems were experienced during manufacture. In addition, it was observed that the use of conventional lubricants such as magnesium stearate and sodium stearyl fumarate led to chemical degradation including impurity formation and/or complexation.

solubility (fasted simulated intestinal fluid, pH 6.5, fassif, read-out: solubility in fasted simulated intestinal fluid): ~250 µg/mL
solubility (simulated gastric fluid, pH 1.2, simulated gastric fluid, read-out: solubility in simulated gastric fluid): ~5000 µg/mL
Compound: COc1cc(CCc2cc(NC(=O)c3ccc(N4C[C@@H](C)N[C@@H](C)C4)cc3)n[nH]2)cc(OC)c1 [Formula (I), N-[5-[2-(3,5-dimethoxyphenyl)ethyl]-2H-pyrazol-3-yl]-4-[(3R,5S)-3,5-dimethylpiperazin-1-yl]benzamide]
